In US10844044B2 (Vanderbilt University, priority 2018, dated 2020) one finds Ki data, which are given here for 22 compounds.

In one assay the target is WDR5 (Homo sapiens (Human), UniProt P61964). The assay is described as follows: TR-FRET binding assay (displacement of 10mer-Thr-FAM probe from WDR5). The settings on record: read-out: Ki for Inhibition of WDR5 by TR-FRET assay.
Consider `C[C@H](NC(=O)c1cc(Cn2ccoc2=N)cc(-c2cccnc2C(F)(F)F)c1)c1ccc(F)c(Cl)c1` [Example 257, (S)—N-(1-(3-Chloro-4-fluorophenyl)ethyl)-3-((2-iminooxazol-3(2H)-yl)methyl)-5-(2-(trifluoromethyl)pyridin-3-yl)benzamide], for which the Ki (as a rule, the dissociation constant of the complex between target and ligand, obtained from inhibition or displacement) was found to be 2 nM.

For the compound `C[C@H](NC(=O)c1cc(Cn2ccoc2=N)cc(-c2cccnc2C(F)(F)F)c1)c1ccc(C(F)(F)F)cc1` [Example 258], the Ki came out at 5.8 nM.

Consider `CCn1cc(-c2cc(CN3CCOC3=N)cc(C(=O)NCC3CCOCC3)c2)c(C(F)(F)F)n1` [Example 288, 3-(1-Ethyl-3-(trifluoromethyl)-1H-pyrazol-4-yl)-5-((2-iminooxazolidin-3-yl)methyl)-N-((tetrahydro-2H-pyran-4-yl)methyl)benzamide], for which the Ki turned out to be 8.7 nM.

In the case of `Cc1cc([C@@H](NC(=O)c2cc(CN3C[C@H](C)OC3=N)cc(-c3cccnc3C(F)(F)F)c2)C2CC2)ccc1F` [Example 296, N—((S)-cyclopropyl(4-fluoro-3-methylphenyl)methyl)-3-(((S)-2-imino-5-methyloxazolidin-3-yl)methyl)-5-(2-(trifluoromethyl)pyridin-3-yl)benzamide], the Ki amounted to 7 nM.

Regarding `Cc1cc([C@@H](NC(=O)c2cc(CN3CCSC3=N)cc(-c3ccc(F)cc3C#N)c2)C2CC2)ccc1F` [Example 316], the Ki was found to be 0.91 nM.

`N=C1SCCN1Cc1cc(C(=O)N[C@H](c2ccc(Cl)c(Cl)c2)C2CC2)cc(-c2ncc(F)cc2C(F)(F)F)c1` [Example 317, (S)—N-(Cyclopropyl(3,4-dichlorophenyl)methyl)-3-(5-fluoro-3-(trifluoromethyl)pyridin-2-yl)-5-((2-iminothiazolidin-3-yl)methyl)benzamide]: the Ki turned out to be 0.28 nM.

The same assay, now with this note: read-out: Ki for Inhibition of WDR5 by TR-FRET assay; TR-FRET, 10mer-Thr-FAM probe, WDR5-His tag 2 nM, pH 7.0.
Turning to `CCc1coc(=N)n1Cc1cc(C(=O)N[C@H](c2ccc(F)c(C)c2)C2CC2)cc(-c2cccnc2C(F)(F)F)c1` [Example 256, (S)—N-(Cyclopropyl(4-fluoro-3-methylphenyl)methyl)-3-((4-ethyl-2-iminooxazol-3(2H)-yl)methyl)-5-(2-(trifluoromethyl)pyridin-3-yl)benzamide], the inhibitory constant (Ki) was 2.7 nM.

In the case of `C[C@H](NC(=O)c1cc(Cn2ccoc2=N)cc(-c2cccnc2C(F)(F)F)c1)c1ncc(F)cn1` [Example 262, (S)—N-(1-(5-Fluoropyrimidin-2-yl)ethyl)-3-((2-iminooxazol-3(2H)-yl)methyl)-5-(2-(trifluoromethyl)pyridin-3-yl)benzamide], the Ki is greater than 33 nM.

Take `Cc1cc([C@@H](NC(=O)c2cc(Cn3ccoc3=N)cc(C3CC3)c2)C2CC2)ccc1F` [Example 265, (S)-3-cyclopropyl-N-(cyclopropyl(4-fluoro-3-methylphenyl)methyl)-5-((2-iminooxazol-3(2H)-yl)methyl)benzamide]: the Ki came to 0.78 nM.

`Cc1cc([C@@H](NC(=O)c2cc(CN3CCCOC3=N)cc(-c3cccnc3C(F)(F)F)c2)C2CC2)ccc1F` [Example 266, (S)—N-(Cyclopropyl(4-fluoro-3-methylphenyl)methyl)-3-((2-imino-1,3-oxazinan-3-yl)methyl)-5-(2-(trifluoromethyl)pyridin-3-yl)benzamide]: the Ki amounted to 16 nM.

On to `N=c1occn1Cc1cc(C(=O)N[C@H](c2ccc(Cl)c(Cl)c2)C2CC2)cc(-c2ccc(F)cc2OC(F)F)c1` [Example 270, (S)—N-(Cyclopropyl(3,4-dichlorophenyl)ethyl)-2′-(difluoromethoxy)-4′-fluoro-5-((2-iminooxazol-3(2)-yl)methyl)-[1,1′-biphenyl]-3-carboxamide], for which the Ki worked out at 0.18 nM.

Take `N=c1occn1Cc1cc(C(=O)N[C@H](c2ccc(Cl)c(Cl)c2)C2CC2)cc(-c2cccnc2C(F)(F)F)c1` [Example 271, (S)—N-(Cyclopropyl(3,4-dichlorophenyl)methyl)-3-((2-iminooxazol-3(2H)-yl)methyl)-5-(2-(trifluoromethyl)pyridin-3-yl)benzamide]: the Ki amounted to 0.72 nM.

`Cc1cc(F)ccc1-c1cc(Cn2ccoc2=N)cc(C(=O)NCc2ccc(Cl)c(Cl)c2)n1` [Example 277, N-(3,4-Dichlorobenzyl)-6-(4-fluoro-2-methylphenyl)-4-((2-iminooxazol-3(2H)-yl)methyl)picolinamide]: the Ki was greater than 33 nM.

As to `Cc1cc([C@@H](NC(=O)c2cc(CN3CCOC3=N)cc(-c3cn(CC(C)C)nc3C(F)(F)F)c2)C2CC2)ccc1F` [Example 278, (S)—N-(Cyclopropyl(4-fluoro-3-methylphenyl)methyl)-3-((2-iminooxazolidin-3-yl)methyl)-5-(1-isobutyl-3-(trifluoromethyl)-1H-pyrazol-4-yl)benzamide], the Ki was determined as 0.34 nM.

As to `CCn1cc(-c2cc(CN3CCOC3=N)cc(C(=O)NCC3CCCO3)c2)c(C(F)(F)F)n1` (stereo not shown) [Example 289, 3-(1-Ethyl-3-(trifluoromethyl)-1H-pyrazol-4-yl)-5-((2-iminooxazolidin-3-yl)methyl)-N-((tetrahydrofuran-2-yl)methyl)benzamide], the Ki amounted to 31 nM.

Consider `CCn1cc(-c2cc(CN3CCOC3=N)cc(C(=O)NCC3CCOC3)c2)c(C(F)(F)F)n1` (stereo not shown) [Example 290, 3-(1-Ethyl-3-(trifluoromethyl)-1H-pyrazol-4-yl)-5-((2-iminooxazolidin-3-yl)methyl)-N-((tetrahydrofuran-3-yl)methyl)benzamide], for which the Ki stood at 20 nM.

Consider `Cc1cc([C@@H](NC(=O)c2cc(CN3C[C@@H](C)OC3=N)cc(-c3cccnc3C(F)(F)F)c2)C2CC2)ccc1F` [Example 297, N—((S)-cyclopropyl(4-fluoro-3-methylphenyl)methyl)-3-(((R)-2-imino-5-methyloxazolidin-3-yl)methyl)-5-(2-(trifluoromethyl)pyridin-3-yl)benzamide], for which the Ki was determined as 2.3 nM.

As to `CCOc1c(C(=O)N[C@H](c2ccc(F)c(C)c2)C2CC2)cc(Cn2ccoc2=N)cc1-c1cn(C)nc1C(F)(F)F` [Example 304], the Ki is less than 0.1 nM.

In the case of `N=C1SCCN1Cc1cc(C(=O)N[C@H](c2ccc(Cl)c(Cl)c2)C2CC2)cc(-c2cccnc2C(F)(F)F)c1` [Example 311, (S)—N-(Cyclopropyl(3,4-dichlorophenyl)methyl)-3-((2-iminothiazolidin-3-yl)methyl)-5-(2-(trifluoromethyl)pyridin-3-yl)benzamide], the Ki was 1.49 nM.

As to `Cc1cc([C@@H](NC(=O)c2cc(CN3CCSC3=N)cc(-c3cn(CC(C)C)nc3C(F)(F)F)c2)C2CC2)ccc1F` [Example 313, (S)—N-(Cyclopropyl(4-fluoro-3-methylphenyl)methyl)-3-((2-iminothiazolidin-3-yl)methyl)-5-(1-isobutyl-3-(trifluoromethyl)-1H-pyrazol-4-yl)benzamide], the Ki was determined as 1.2 nM.

On to `Cc1cc([C@@H](NC(=O)c2cc(CN3CCSC3=N)cc(-c3cn(C4CCCC4)nc3C(F)(F)F)c2)C2CC2)ccc1F` [Example 314, (S)-3-(1-Cyclopentyl-3-(trifluoromethyl)-1H-pyrazol-4-yl)-N-(cyclopropyl(4-fluoro-3-methylphenyl)methyl)-5-((2-iminothiazolidin-3-yl)methyl)benzamide], for which the Ki worked out at 4 nM.

With `Cc1cc([C@@H](NC(=O)c2cc(CN3CCCSC3=N)cc(-c3cccnc3C(F)(F)F)c2)C2CC2)ccc1F` [Example 315, (S)—N-(Cyclopropyl(4-fluoro-3-methylphenyl)methyl)-3-((2-imino-1,3-thiazinan-3-yl)methyl)-5-(2-(trifluoromethyl)pyridin-3-yl)benzamide], the Ki was found to be 1 nM.
